# Columns and labels:
# [1] = Kinetic inertness of Lu^3+ complex of macropa: transchelation challenge; assay type: physicochemical; conditions: Lu^3+ complex of macropa formed in situ; addition of 10 equiv of EDTA; pH 7.4
# Experimental: (§1) Kinetic Inertness of La^3+ and Lu^3+ Complexes of Macropa: Transchelation Challenge. A stock solution of ethylenediaminetetraacetic acid (EDTA, 100 mM) was made in MOPS buffer (prepared as described above) by adjusting the pH of the initial suspension to 6.6 using aqueous NMe4OH. A stock solution of diethylenetriaminepentaacetic acid (DTPA, 125 mM) was prepared in H2O by adjusting the pH to 7.4 as described for EDTA. This solution was serially diluted with H2O to yield 12.5 mM and 1.25 mM solutions of DTPA.
# (§2) The preformed La^3+ and Lu^3+ complexes of macropa were challenged with EDTA. […] […]. Solutions were repeatedly analyzed by UV spectroscopy over the course of 21 days for any spectral changes. The final pH of each solution was between 7.18 and 7.25.
# [2] = Kinetic inertness of La^3+ complex of macropa: transchelation challenge; assay type: physicochemical; conditions: La^3+ complex of macropa formed in situ; 1000 equiv of DTPA; whole 21-day observation
# Experimental: as §1, §2
# The complex formed in situ between La^3+ and macropa was more rigorously challenged with excess DTPA. A solution containing 500 μM of complex, prepared using the LaCl3 and macropa stock solutions described above, was left to equilibrate for 5 min. Subsequently, it was portioned into cuvettes and diluted with either 125 mM DTPA, 12.5 mM DTPA, 1.25 mM DTPA, or MOPS to yield solutions containing 1000-, 100-, 10-, or 0-fold excess DTPA and 100 μM concentration of macropa. These solutions were repeatedly analyzed by UV spectroscopy over the course of 21 days for any spectral changes. The final pH of each solution was between 7.11 and 7.42.
structure (smiles),measurement,setting,value
"O=C(O)c1cccc(CN2CCOCCOCCN(Cc3cccc(C(=O)O)n3)CCOCCOCC2)n1 [macropa, N,N′-bis[(6-carboxy-2-pyridil)methyl]-4,13-diaza-18-crown-6]",time until Lu^3+ ion was transchelated,[1],≤ 1 min
same,time La^3+ complex remained intact,[2],up to 21 days
